Results: patent US7476729B2, “Dbait and uses thereof” (Institut Curie, priority 2003, dated 2009)
“Also recorded” adds a separate entry of the source.

What was measured:
[1] = target: T1, Ku complex (Homo sapiens, UniProt P12956+P13010); assay: Band-shift assay with Hep2 nuclear protein extracts; assay type: binding; conditions: 10 nM 32P radio-labelled Dbait, 0-320 ng/μL Hep2 nuclear proteins, 30° C., 10 minutes
T1 construct: in the presence of nuclear protein extracts from Hep2 cells according to standard protocol; endogenous in cells; host or cells: Hep2 cells (nuclear protein extract)
T1 sequence (P12956 whole entry): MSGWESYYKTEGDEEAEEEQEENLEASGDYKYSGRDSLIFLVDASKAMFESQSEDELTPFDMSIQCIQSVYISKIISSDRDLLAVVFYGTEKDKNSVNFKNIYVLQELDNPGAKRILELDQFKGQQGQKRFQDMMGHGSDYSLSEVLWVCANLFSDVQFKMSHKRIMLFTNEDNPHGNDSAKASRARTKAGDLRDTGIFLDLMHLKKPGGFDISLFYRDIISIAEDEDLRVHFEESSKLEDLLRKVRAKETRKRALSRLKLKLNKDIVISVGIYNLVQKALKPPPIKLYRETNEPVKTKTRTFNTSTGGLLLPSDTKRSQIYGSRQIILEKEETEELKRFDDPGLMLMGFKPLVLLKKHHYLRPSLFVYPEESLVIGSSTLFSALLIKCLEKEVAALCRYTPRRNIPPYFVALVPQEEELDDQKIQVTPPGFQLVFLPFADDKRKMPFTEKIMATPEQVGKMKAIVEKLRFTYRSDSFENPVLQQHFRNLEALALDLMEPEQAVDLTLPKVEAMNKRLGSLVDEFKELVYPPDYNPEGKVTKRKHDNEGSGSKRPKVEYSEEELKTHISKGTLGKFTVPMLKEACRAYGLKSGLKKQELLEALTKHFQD
T1 sequence (P13010 whole entry): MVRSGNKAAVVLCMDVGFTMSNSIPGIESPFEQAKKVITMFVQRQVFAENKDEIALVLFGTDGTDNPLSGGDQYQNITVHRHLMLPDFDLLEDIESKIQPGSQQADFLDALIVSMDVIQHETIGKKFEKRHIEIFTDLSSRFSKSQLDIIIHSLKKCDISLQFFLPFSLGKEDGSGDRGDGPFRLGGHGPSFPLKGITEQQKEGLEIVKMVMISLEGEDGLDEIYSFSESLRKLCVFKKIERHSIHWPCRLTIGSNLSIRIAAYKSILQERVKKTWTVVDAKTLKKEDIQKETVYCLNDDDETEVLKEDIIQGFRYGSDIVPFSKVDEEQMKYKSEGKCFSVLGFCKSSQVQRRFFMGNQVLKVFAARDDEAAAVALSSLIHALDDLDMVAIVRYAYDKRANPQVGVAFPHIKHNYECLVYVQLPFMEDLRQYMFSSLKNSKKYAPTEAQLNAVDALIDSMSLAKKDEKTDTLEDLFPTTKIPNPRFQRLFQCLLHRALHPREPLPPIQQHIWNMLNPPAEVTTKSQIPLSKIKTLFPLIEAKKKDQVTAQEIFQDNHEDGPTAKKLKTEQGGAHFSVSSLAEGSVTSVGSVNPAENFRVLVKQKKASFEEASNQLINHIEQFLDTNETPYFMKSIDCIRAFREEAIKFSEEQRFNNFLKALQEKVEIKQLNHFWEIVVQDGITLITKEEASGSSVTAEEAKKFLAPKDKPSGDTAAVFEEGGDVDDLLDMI
Method: As the first step to dissect the mechanism of action of Dbait molecules, a series of band-shift assays were carried out with different ^32P radio-labelled Dbait molecules in the presence of nuclear protein extracts from Hep2 cells according to standard protocol. Typically, 10 nM ^32P radio-labelled Dbait molecules were incubated in the presence of various concentrations of nuclear proteins (0, 10, 20, 40, 80, 160, and 320 ng/μL) at 30° C. for 10 minutes in TBE buffer. Then the samples were loaded on a 5% acrylamide native gel. The electrophoresis was run at 95V for 2 hours at 4° C. The gel was dried and scanned by phosphorimager (Molecular Dynamics).
For 32-bp Dbait molecules, the intensity of the retarded band 1 increases and then decreases as the concentration of protein increases, while the intensity of the retarded band 2 increases as a function of the concentration of nuclear protein extracts.
It is likely that band 1 has one Ku70/80 complex bound to the 16 to 32-bp Dbait, whereas the band 2 has two Ku70/80 complexes bound to the 32-bp Dbait molecules. Control experiments performed with purified Ku proteins confirmed this interpretation.

[2] = tested on: GMA32 cells; assay: Clonogenicity (clonal survival) assay in GMA32 cells with irradiation or mitotic inhibitors; assay type: cell-based, Chinese hamster
Method: (§1) The GMA32 Chinese hamster fibroblast cells permissive of DNA breaks were maintained in MEM medium (Gibco) supplemented with 1 mM sodium pyruvate, 2 mM glutamine, 1×MEM non essential amino acids, 1× penicillin/streptomycin and 10% horse serum. Typically, 2×10^5 to 4×10^5 cells were seeded in medium without antibiotics, in 5 cm diameter Petri dishes 24 hours before the transfection of different Dbait molecules (4.5 μg) with lipofectamine 2000 (LifeTechnologies) as transfection agent (in a 1:3 ratio), according to the manufacturer's instructions. At the end of the transfection the cells were either irradiated (4 Gy) or treated with mitotic inhibitors: nocodazole (200 nM), navelbine (100 nM) or taxol (200 nM).
(§2) About 16 hour later the drug was removed and the cells were allowed to recover. Cell irradiation was performed with γ-rays from a ^137Cs source. After a 24 hours recovery, the cells were collected and used either for FACS, western blot analyses or to determine the clonogenicity (survival) and the effect of each treatment.
The effect of radiosensitization and chemosensitization of Dbait molecules in GMA32 cells was evaluated by clonogenicity (clonal survival) assay. For the clonogenicity assay, serial dilutions were made after counting the cells to seed 5 cm Petri dishes with different amounts of cells. The number of cells range from 100-200 (control cells) to 3000 (transfected or/and treated cells). Ten days after, the cells (forming clone) were fixed with 4% paraformaldehyde (20 minutes), then colored with methylene blue (15 minutes), and the number of clone in each plate (in triplicates) was scored.
These drugs are known as potent inhibitors of either polymerization or depolymerization of microtubules. Dbait32 (SEQ ID NO: 1) and Dait32H (SEQ ID NO: 1) were able to enhance to cytotoxic activity of these mitotic inhibitors.

[3] = tested on: GMA32 cells; assay: FACS analysis of sub-G1 cells (cell death) in GMA32 cells; assay type: cell-based, Chinese hamster; conditions: GMA32, 4.5 μg Dbait with lipofectamine, no irradiation or mitotic inhibitor
Method: as §1, §2
The M1 phase represents the percentage of cells in sub-G1 stage indicative of cell death.
The experiments were performed with a FACS calibur flow cytometer (Becton Dickinson). Cells were collected, suspended in 1 ml of cold GM buffer (6.5 mM glucose, 137 mM NaCl, 5.4 mM KCl, 2 mM Na2HPO4, 1 mM KHPO4, 0.5 mM EDTA), and stored at 4° C. for at least 2 hours after addition of 3 ml of cold 100% ethanol.
At that stage, cells were eventually washed with 1×PBS, then stained for 30 minutes at room temperature in PI solution (50 μg/ml propidium iodide, 25 μg/ml RNase A in 1×PBS buffer). 10,000 events were analyzed with Cellquest software, and cell aggregates were gated out. The percentage of cells with a sub-G1 content of DNA was scored.

[4] = tested on: γ-H2AX foci in GMA32 cells; assay: Immunodetection of γ-H2AX DSB foci in GMA32 cells; assay type: cell-based, Chinese hamster; conditions: GMA32, Dbait with lipofectamine, no irradiation
Method: Under the same conditions, the immunodetection of DSB foci of γ-H2AX phosphorylated on serine 139 by γ-H2AX labeling (bright dots or patches in nuclei) was performed in the untreated GMA32 cells, the cells transfected alone, or transfected with different Dbait molecules by lipofectamine. The counterstaining of cell membranes and nuclei were achieved by FITC-DiOC6 and DAPI. Similar effects of Dbait molecules were observed (FIG. 3.2). […] This provides visual evidence that these Dbait molecules can be used for trapping proteins involved in DSB repair via NHEJ pathway.
For immunodetection, the cells were grown on coverslip in 5 cm diameter Petri dishes 24 hours before the transfection with different Dbait molecules. One day after the transfection, FITC-DiOC6 (Molecular probes) was added in the medium 5 minutes at 37° C. (to counterstain the membranes). After 3 washing cycles, the cells were fixated with 4% PFA for 20 minutes.
After additional washing, γ-H2AX phosphorylated on serine 139 (γ-H2AX) was detected with. rabbit anti-γ-H2AX antibody (4411-PC, Trevigen) diluted 1/100 in 1×PBS, 1% BSA. Cells were washed three times with 1×PBS, 0.5%, TritonX-100, then incubated for 1 hour at room temperature with goat anti-rabbit antibodies Alexa 594 (Molecular Probes) diluted 1/100 in 1×PBS, 1% BSA. Cells were visualized by epifluorescence microscopy.

[5] = tested on: p53 serine 15 phosphorylation in GMA32 cells; assay: Western blot of p53 serine 15 phosphorylation in GMA32 cells; assay type: cell-based, Chinese hamster; conditions: GMA32, Dbait with lipofectamine, no irradiation or mitotic inhibitor
Method: Further experiment was carried out in order to look for evidence of DNA damage signaling. The protein p53 is a well known major protein in mediating DNA damage signaling and in coordinating appropriate responses (DNA repair, apoptosis, etc.) by changing its phosphorylation status. In particular, the phosphorylation of serine 15 residue is involved in the interaction with MDM2 protein which acts as a feed back control Thus, the phosphorylation status of the serine 15 of p53 was assessed by Western blot.
For Western blot analysis, cells were lysed in Laemmli buffer. Equal amounts of lysates were resolved in 12% polyacrylamide gels. Proteins were transferred to nitrocellulose membranes, which were blocked with 5% nonfat milk (1 hour) before overnight incubation with anti-p53Ser15 antibody (9284, Cell Signaling) diluted 500 folds in TBST buffer (10 mM Tris-HCl pH7.5, 150 mM NaCl, 0.1% Tween 20) containing 5% nonfat milk. Blots were then incubated with horseradish peroxidase-conjugated goat anti-rabbit IgG secondary antibodies (P0448, Dako) diluted 1/5000 in TBST. Protein-antibody complexes were detected by enhanced chemiluminescence (RPN2106 ECL, Amersham).

[6] = tested on: γ-H2AX foci in Hela cells; assay: Immunodetection of DSB sites (γ-H2AX foci) in Hela cells after irradiation; assay type: cell-based, human; conditions: 2 μg Dbait, two hours after 2 Gy irradiation
Method: Transfection and irradiation protocoles were similar to those described above. For immunodetection, the cells were grown on surface coverslip in 5 cm diameter Petri dishes, transfected with 2 μg Dbait32H-FITC (SEQ ID NO: 1) molecules labeled with FITC with Superfect (Qiagene) according to the manufacturer's instruction. Four hours after the beginning of the transfection, cells were irradiated (2 Gy), then rest for 2 hours in the medium at 37° C. After 3 washing cycles, the cells were fixated with 2% PFA for 10 minutes. After one additional washings, the presence of γ-H2AX was detected with rabbit anti-γ-H2AX antibody (4411-PC, Trevigen) diluted 1/100 in 1×PBS, 1% BSA. Cells were washed three times with 1×PBS, 0.5% TritonX-100, then incubated for 1 hour at room temperature with rhodamine-conjugated goat anti-rabbit antibodies diluted 1/100 in 1×PBS, 1% BSA. Cells were visualized by epifluorescence microscopy.
Left panel: fluorescence of Dbait32H-FITC (SEQ ID NO: 1) (bright dots and patches) and DBS foci detected by immunofluorescence of γ-H2AX antibody in nuclei; Right panel: the same image of nuclei with DSB foci detected by immunofluorescence of γ-H2AX antibody and DAPI counterstaining. The arrows at the lower left corner show the absence of Dbait32H-FITC (SEQ ID NO: 1) and γ-H2AX signal in nucleus. […]

[7] = tested on: tumor tissues of K-Ras^V12G×Apc^1638N transgenic mouse; assay: Fluorescence microscopy of digestive tumor tissue of a treated transgenic mouse; assay type: in vivo; conditions: oral, with 5FU+CPT11 for three days, sacrificed two hours after the last treatment
Method: Tumor samples prepared from animals treated with Dbait molecules tagged by fluorescein (Dbait32H-FITC) (SEQ ID NO: 1) and 5FU+CPT11 were analysed using immunofluorescence staining methods. γ-H2AX labeled foci were costained with fluorescent Dbait molecules, in reminiscence of the in vitro finding (cf. example 3.3 and 4). […] Then the tumor tissues were sampled and frozen at −80° C. For the analysis, 5 μm histological samples were made from the frozen tumor tissues by cryostat. DNA repair foci were detected by immunofluorescence with polyclonal rabbit anti-γ-H2AX antibody (Trevigen) diluted 1/500 in PBS, then with goat anti-rabbit antibody tagged by cyanine 3 (Jackson) diluted 1/200 in PBS. The samples were also counterstained by DAPI Samples were visualized by epifluorescence microscopy. […] Similar pattern was found for γ-H2AX sites (FIG. 5.3, panel B, right). The co-localized Dbait32H-FITC (SEQ ID NO: 1) and γ-H2AX signals were almost observed.

Substance | retarded bands in band-shift assay [1] | chemosensitization (clonal survival) ([2]; GMA32, 200 nM nocodazole, 100 nM navelbine (vinorelbine) or 200 nM taxol (paclitaxel)) | radiosensitization (clonal survival) ([2]; GMA32, 4 Gy irradiation) | cell death (cells in sub-G1 stage) [3] | γ-H2AX DSB foci (cell response) [4] | phosphorylation of p53 serine 15 [5] | persistence of DSB sites (γ-H2AX foci) [6] | distribution in tumor tissues [7]
Dbait32: 32-bp linear double-stranded Dbait molecule (SEQ ID NO: 1) (ACGCACGGGTGTTGGGTCGTTTGTTCGGATCT; DNA, backbone not given here; linear DNA duplex, phosphorothioates at blunt ends, exact count not readable, further chemistry not fully specified) | two retarded band | chemosensitization was also observed | radiosensitization to 4 Gy irradiation was observed | Significant cell death | effectively trigger similar cell response as if DNA damages were occurred in nuclei | highly phosphorylated |  | 
Dbait32H-FITC: Dbait32H labelled via a T tagged with fluorescein (DNA ACGCACGGGTGTTGGGTCGTTTGTTCGGATCT; DNA, backbone not given here; fluorescein on a T, hairpin, hexaethyleneglycol loop, phosphorothioate blunt end, further chemistry not fully specified) |  |  |  |  |  |  | DSB sites persisted | heterogeneously disseminated in tumor tissues; also recorded: preferential nucleus localization
